From article PMC6300878, “In vitro antiplasmodial activity, pharmacokinetic profiles and interference in isoprenoid pathway of 2-aniline-3-hydroxy-1.4-naphthoquinone derivatives” (Malaria Journal, 2018)

How the values were obtained:
[1] = solution with a maximum of 1% DMSO
Plasmodium berghei = system: Plasmodium berghei; parameters: method as in PMID 23850202; conditions: murine Plasmodium berghei model; cited from earlier work
[2] = system: tocopherol (TC) biosynthesis
Description: (§1) A flask was kept untreated and is considered the positive control. After 36 h, the culture was labeled with [1-(n)-^3H]GGPP (3.125 µCi/ml) in normal RPMI 1640 medium [32] during the last 16 h. The schizonts were purified by magnetic column (MACS Separation Columns “CS”, Miltenyi Biotec) [33]. The parasitaemia was estimated by microscopic examination of Giemsa-stained smears and the volume was adjusted of purified culture, according to the control, so that equal numbers of treated and untreated parasites were applied. After metabolic labelling and purification, lyophilized schizonts were used for extraction of MQ and TC. The final extract was injected into the HPLC-RT [34].
(§2) The molecules of MQ and TC were purified by an isocratic system with mobile phase methanol: ethanol (50:50 v/v), flow 0.5 ml/min and detection performed by UV absorption spectrum at a wavelength equal to 270 nm. The mobile phase was filtered on a PTFE (solvent A) and NYLON (solvent B) membrane of 0.20 µM. Radioactive fractions were dried by evaporation at 24 °C and resuspended in scintillation fluid. Quantification of the radioactivity (c.p.m.) was performed on the device Beckman 5000 β-radiation scintillation counter (Beckman, CA, USA) [34].
(§3) The IC50 was estimated by linear interpolation as compared to the drug-free controls, using the software GraphPad PRISM software. […]

[3] = system: menaquinone (MQ) biosynthesis
Description: as §1, §2, §3

[4] = cited from earlier work

Row | Structure (SMILES) | Solubility [1] | Antiplasmodial activity in vivo (Plasmodium berghei) | inhibition [2] | inhibition [3] | Binding to plasma proteins [4] | Bioavailability [4] | Biopharmaceutics Classification (BCS) class [4]
1 | O=C1C(O)=C(Nc2ccccc2)C(=O)c2ccccc21 [4a] | soluble | interesting antiplasmodial activity |  |  |  |  | 
2 | COc1ccc(NC2=C(O)C(=O)c3ccccc3C2=O)cc1 [4c] | soluble | interesting antiplasmodial activity | 49.6% | 58.1% |  |  | 
3 | O=C1C(O)=C([C@H]2CC[C@H](c3ccc(Cl)cc3)CC2)C(=O)c2ccccc21 [atovaquone] |  |  |  |  | high binding to plasma proteins | low bioavailability | class II
